Laboratory results taken from the NIST ThermoML archive (doi:10.1016/j.jct.2004.12.014).

Key:
[1] = excess molar enthalpy (molar enthalpy of mixing); xn = mol fraction of the nth substance listed; details: 318.15 K, 101 kPa, Liquid
[2] = xn = mol fraction of the nth substance listed; details: 318.15 K, 101 kPa, Liquid

CCC(=O)OC [methyl propanoate] + CCCCCCC
Details	excess molar enthalpy [kcal/mol]	excess molar volume [m3/mol]
[1], x1 = 0.0703	0.0855	–
[1], x1 = 0.154	0.176	–
[1], x1 = 0.2369	0.249	–
[1], x1 = 0.3018	0.296	–
[1], x1 = 0.3693	0.331	–
[1], x1 = 0.4258	0.35	–
[1], x1 = 0.4809	0.362	–
[1], x1 = 0.5084	0.363	–
[1], x1 = 0.5258	0.363	–
[1], x1 = 0.5447	0.361	–
[1], x1 = 0.586	0.353	–
[1], x1 = 0.6301	0.34	–
[1], x1 = 0.6752	0.32	–
[1], x1 = 0.7232	0.295	–
[1], x1 = 0.7744	0.259	–
[1], x1 = 0.8241	0.215	–
[1], x1 = 0.8704	0.168	–
[1], x1 = 0.9177	0.112	–
[1], x1 = 0.9639	0.0537	–
[2], x1 = 0.0406	–	2.5e-07
[2], x1 = 0.0927	–	5.08e-07
[2], x1 = 0.1719	–	8.36e-07
[2], x1 = 0.248	–	1.063e-06
[2], x1 = 0.3249	–	1.222e-06
[2], x1 = 0.3904	–	1.27e-06
[2], x1 = 0.4571	–	1.288e-06
[2], x1 = 0.5214	–	1.254e-06
[2], x1 = 0.5761	–	1.192e-06
[2], x1 = 0.6333	–	1.105e-06
[2], x1 = 0.6853	–	1.008e-06
[2], x1 = 0.7372	–	9.01e-07
[2], x1 = 0.7844	–	7.75e-07
[2], x1 = 0.8305	–	6.37e-07
[2], x1 = 0.8748	–	4.85e-07
[2], x1 = 0.9184	–	3.36e-07
[2], x1 = 0.9596	–	1.83e-07

CCC(=O)OC [methyl propanoate] + CCCCCCCCC
Details	excess molar enthalpy [kcal/mol]	excess molar volume [m3/mol]
[1], x1 = 0.084	0.111	–
[1], x1 = 0.1528	0.19	–
[1], x1 = 0.2279	0.261	–
[1], x1 = 0.2957	0.313	–
[1], x1 = 0.3549	0.35	–
[1], x1 = 0.4111	0.375	–
[1], x1 = 0.4611	0.391	–
[1], x1 = 0.5059	0.4	–
[1], x1 = 0.546	0.402	–
[1], x1 = 0.5832	0.399	–
[1], x1 = 0.6314	0.386	–
[1], x1 = 0.6645	0.371	–
[1], x1 = 0.7099	0.345	–
[1], x1 = 0.7579	0.311	–
[1], x1 = 0.808	0.268	–
[1], x1 = 0.8604	0.212	–
[1], x1 = 0.9122	0.148	–
[1], x1 = 0.9599	0.0769	–
[2], x1 = 0.047	–	2.8e-07
[2], x1 = 0.111	–	5.7e-07
[2], x1 = 0.2022	–	9.27e-07
[2], x1 = 0.2873	–	1.164e-06
[2], x1 = 0.3671	–	1.333e-06
[2], x1 = 0.4381	–	1.406e-06
[2], x1 = 0.5037	–	1.425e-06
[2], x1 = 0.5664	–	1.423e-06
[2], x1 = 0.6242	–	1.359e-06
[2], x1 = 0.6768	–	1.278e-06
[2], x1 = 0.7271	–	1.166e-06
[2], x1 = 0.7724	–	1.037e-06
[2], x1 = 0.817	–	8.78e-07
[2], x1 = 0.856	–	7.5e-07
[2], x1 = 0.896	–	5.89e-07
[2], x1 = 0.9315	–	3.93e-07
[2], x1 = 0.9661	–	1.98e-07
